As usually defined, the EC50 is the concentration at which the effect is half-maximal.

Consider 14 molecules from patent publication US20230295201A1 (Gilead Sciences, Inc., priority 2020, published 2023).

What all share (format): cell-based
The test system of one assay is RSV strain A2. Description: RSV HEp-2 EC50 (infectious cytopathic cell protection assay). Particulars: HEp-2 cells, RSV A2, 4 days, read-out: RSV HEp-2 EC50. A digest of the protocol:
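HEp-2 cells mixed with titered RSV A2 at 50,000 cells/ml were added to plates holding 3-fold serial compound dilutions in DMSO, then incubated 4 days at 37° C. Cytoprotection was read as cell viability by CellTiter-Glo luminescence and converted to percent inhibition against 0% and 100% inhibition controls.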

A further assay deals with RSV A2. Description: RSV NHBE EC50 (RSV A2 antiviral assay in normal human bronchial epithelial cells). The following applies: NHBE cells, RSV A2, 4 days, read-out: RSV NHBE EC50.
In a further assay the test system is HRV16. The assay can be described thus: HRV16 HELA EC50 (cytopathic effect in H1-HeLa cells). A digest of the protocol: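 H1-HeLa cells seeded one day before, given 3-fold serial compound dilutions in triplicate just prior to infection with pre-titrated virus. Incubated 96 h at 33 °C/5% CO2; protection from cytopathic effect read as viability by CellTiter-Glo luminescence, normalised to infected untreated (0%) and uninfected (100%) controls.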
On the technique in general: Protection from cytopathic effect is a common read-out in antiviral testing.

The test system of a further assay is DENV2 replicon. Description: DENV-2 Huh-7 Rep EC50 (replicon luminescence). The following applies: read-out: DENV-2 Huh-7 Rep EC50. Put shortly:
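Huh-7 cells carrying a DENV2 replicon, 5,000 cells/well, were incubated with dosed compounds for 48 h at 37° C. EnduRen live-cell substrate was added 1.5 h before luminescence reading. EC50 came from dose-response against DMSO-only wells.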

The mark [1] stands for this setting: human respiratory syncytial virus, HEp-2, 96 h.
[2] abbreviates: human respiratory syncytial virus, NHBE, 96 h.
Where [3] appears, read: 96 h, H1-HeLa cells, 33° C., read-out: HRV16 HELA EC50.
The mark [4] stands for this setting: Dengue virus, DENV2, Huh-7, 48 h, Huh-7 replicon cells, 48 hours.
Where [5] appears, read: human respiratory syncytial virus, 96 h.
The mark [6] stands for this setting: H1-HeLa cells, 96 h, 33° C.; read-out: HRV16 HELA EC50.
The mark [7] stands for this setting: Dengue virus, DENV2, Huh-7, 48 h.

Read-outs that look alike come from different tables or passages of the source.

On to `C[C@H](NP(=O)(OC[C@@]1(C#N)O[C@@H](c2ccc3c(N)ncnn23)[C@H](O)[C@@H]1O)Oc1ccccc1)C(=O)OC1CCCCCC1` (stereo partly drawn) [Example 134, (2S)-cycloheptyl 2-(((((2R,3S,4R,5S)-5-(4-aminopyrrolo[2,1-f][1,2,4]triazin-7-yl)-2-cyano-3,4-dihydroxytetrahydrofuran-2-yl)methoxy)(phenoxy)phosphoryl)amino)propanoate], for which the EC50 was determined as 0.334 µM in the assay with RSV strain A2 (setting [1]), 0.052 µM in the assay with RSV A2 (setting [2]), 0.247 µM in the assay with HRV16 (setting [3]) and 24.7 µM in the assay on DENV2 replicon (setting [4]).

Regarding `CC(C)[C@H](NC(=O)OC(C)(C)C)C(=O)OCCNP(=O)(OC[C@@]1(C#N)O[C@@H](c2ccc3c(N)ncnn23)[C@H](O)[C@@H]1O)Oc1ccccc1` (stereo partly drawn) [Example 139, (2S)-2-(((((2R,3S,4R,5S)-5-(4-aminopyrrolo[2,1-f][1,2,4]triazin-7-yl)-2-cyano-3,4-dihydroxytetrahydrofuran-2-yl)methoxy)(phenoxy)phosphoryl)amino)ethyl 2-((tert-butoxycarbonyl)amino)-3-methylbutanoate], the EC50 in the assay with RSV strain A2 (setting [1]) was 6.43 µM; in the assay with RSV A2 (setting [2]), 0.103 µM; in the assay on HRV16 (setting [3]), 28.3 µM; in the assay on DENV2 replicon (setting [4]) it was over 50 µM.

Take `C[C@@H](NP(=O)(OC[C@@]1(C#N)O[C@@H](c2ccc3c(N)ncnn23)[C@H](O)[C@@H]1O)Oc1ccccc1)C(=O)O[C@@H]1CCN(C(=O)OC(C)(C)C)C1` (stereo partly drawn) [Example 140, (3R)-tert-butyl 3-(((2R)-2-(((((2R,3S,4R,5S)-5-(4-aminopyrrolo[2,1-f][1,2,4]triazin-7-yl)-2-cyano-3,4-dihydroxytetrahydrofuran-2-yl)methoxy)(phenoxy)phosphoryl)amino)propanoyl)oxy)pyrrolidine-1-carboxylate]: the EC50 in the assay on RSV strain A2 (setting [1]) was 8.89 µM; with RSV A2 (setting [2]) it was over 5 µM; with HRV16 (setting [3]), 23.3 µM; in the assay on DENV2 replicon (setting [4]), over 50 µM.

On to `CC1(C(=O)OCCNP(=O)(OC[C@@]2(C#N)O[C@@H](c3ccc4c(N)ncnn34)[C@H](O)[C@@H]2O)Oc2ccccc2)CC1` (stereo partly drawn) [Example 141, 2-(((((2R,3S,4R,5S)-5-(4-aminopyrrolo[2,1-f][1,2,4]triazin-7-yl)-2-cyano-3,4-dihydroxytetrahydrofuran-2-yl)methoxy)(phenoxy)phosphoryl)amino)ethyl 1-methylcyclopropane-1-carboxylate], for which the EC50 with RSV strain A2 (setting [1]) was 2.01 µM; in the assay with RSV A2 (setting [2]), 0.067 µM; in the assay on HRV16 (setting [3]), 14.9 µM; in the assay with DENV2 replicon (setting [4]) it was over 50 µM.

As to `CC(=O)N1CC[C@@H](OC(=O)[C@H](C)NP(=O)(OC[C@@]2(C#N)O[C@@H](c3ccc4c(N)ncnn34)[C@H](O)[C@@H]2O)Oc2ccccc2)C1` (stereo partly drawn) [Example 146, (2S)—(R)-1-acetylpyrrolidin-3-yl 2-(((((2R,3S,4R,5S)-5-(4-aminopyrrolo[2,1-f][1,2,4]triazin-7-yl)-2-cyano-3,4-dihydroxytetrahydrofuran-2-yl)methoxy)(phenoxy)phosphoryl)amino)propanoate], the EC50 in the assay on RSV strain A2 (setting [1]) was 9.72 µM; in the assay with RSV A2 (setting [2]), over 5 µM; with HRV16 (setting [3]) it was over 50 µM; with DENV2 replicon (setting [4]) it was over 50 µM.

Take `CCCCCCCCCCCCCCCCCCOCCOP(=O)(O)OC[C@@]1(C#N)O[C@@H](c2ccc3c(N)ncnn23)[C@H](O)[C@@H]1O` [Example 148, ((2R,3S,4R,5S)-5-(4-aminopyrrolo[2,1-f][1,2,4]triazin-7-yl)-2-cyano-3,4-dihydroxytetrahydrofuran-2-yl)methyl (2-(octadecyloxy)ethyl) hydrogen phosphate]: the EC50 with RSV strain A2 (setting [5]) is 2.67 µM; in the assay on RSV A2 (setting [5]), 0.32 µM; in the assay with HRV16 (setting [6]), 36.9 µM; in the assay with DENV2 replicon (setting [7]), over 50 µM.

Regarding `C[C@H](NP(=O)(OC[C@@]1(C#N)O[C@@H](c2ccc3c(N)ncnn23)[C@H](O)[C@@H]1O)Oc1ccccc1)C(=O)OC1CCN(C)CC1` (some centres unmarked) [Example 150], the EC50 in the assay with RSV strain A2 (setting [1]) was 4.16 µM; in the assay with RSV A2 (human respiratory syncytial virus, NHBE, in Homo sapiens, 96 h) it was over 5 µM; in the assay on HRV16 (setting [3]), 49.9 µM; with DENV2 replicon (setting [4]) it was over 100 µM.

Consider `C[C@H](NP(=O)(OC[C@@]1(C#N)O[C@@H](c2ccc3c(N)ncnn23)[C@H](O)[C@@H]1O)Oc1ccccc1)C(=O)OC1CCOC(C)(C)C1` (stereo partly drawn) [Example 156, 2,2-dimethyltetrahydro-2H-pyran-4-yl ((((2R,3S,4R,5S)-5-(4-aminopyrrolo[2,1-f][1,2,4]triazin-7-yl)-2-cyano-3,4-dihydroxytetrahydrofuran-2-yl)methoxy)(phenoxy)phosphoryl)alaninate], for which the EC50 in the assay on RSV strain A2 (setting [1]) was 8.94 µM; in the assay with RSV A2 (setting [2]) it was 1.37 µM; with HRV16 (setting [3]), 25.9 µM; in the assay with DENV2 replicon (setting [4]) it was over 100 µM.

`CC[C@H](N[P@@](=O)(OC[C@@]1(C#N)O[C@@H](c2ccc3c(N)ncnn23)[C@H](O)[C@@H]1O)Oc1ccccc1)C(=O)OCC(C)(C)C` [Example 158]: the EC50 is 0.969 µM in the assay with RSV strain A2; 1.27 µM in the assay on RSV A2; 13 µM with HRV16 (setting [6]); over 50 µM in the assay on DENV2 replicon (Huh-7 replicon cells, 48 hours).

In the case of `CC[C@H](N[P@](=O)(OC[C@@]1(C#N)O[C@@H](c2ccc3c(N)ncnn23)[C@H](O)[C@@H]1O)Oc1ccccc1)C(=O)OCC(C)(C)C` [Example 159], the EC50 in the assay on RSV strain A2 was 0.22 µM; in the assay on RSV A2, 0.489 µM; in the assay with HRV16 (setting [6]), 1.28 µM; with DENV2 replicon (Huh-7 replicon cells, 48 hours) it was over 50 µM.

Consider `C[C@H](NP(=O)(OC[C@@]1(C#N)O[C@@H](c2ccc3c(N)ncnn23)[C@H](O)[C@@H]1O)Oc1ccccc1)C(=O)O[C@@H](C)C(N)=O` (some centres unmarked) [Example 160], for which the EC50 with RSV strain A2 was 7.3 µM; in the assay on RSV A2 it was over 5 µM; in the assay with HRV16 (setting [6]) it was 29.1 µM; in the assay with DENV2 replicon (Huh-7 replicon cells, 48 hours), over 50 µM.

For `N#C[C@@]12COP(=O)(OC3CCCC3)O[C@H]1[C@@H](O)[C@H](c1ccc3c(N)ncnn13)O2` (stereo partly drawn) [Example 161, (4aR,6S,7S,7aS)-6-(4-aminopyrrolo[2,1-f][1,2,4]triazin-7-yl)-2-(cyclopentyloxy)-7-hydroxydihydro-4H-furo[3,2-d][1,3,2]dioxaphosphinine-4a(6H)-carbonitrile 2-oxide], the EC50 in the assay on RSV strain A2 (setting [5]) was 6.48 µM; in the assay on RSV A2 (setting [5]), 1.49 µM; in the assay with HRV16 (setting [6]) it was 13.8 µM; in the assay on DENV2 replicon (setting [7]) it was over 50 µM.

Take `C[C@H](NP(=O)(OC[C@@]1(C#N)O[C@@H](c2ccc3c(N)ncnn23)[C@H](O)[C@@H]1O)Oc1ccccc1)C(=O)OCCN(C)C` (stereo partly drawn) [Example 162, 2-(dimethylamino)ethyl ((((2R,3S,4R,5S)-5-(4-aminopyrrolo[2,1-f][1,2,4]triazin-7-yl)-2-cyano-3,4-dihydroxytetrahydrofuran-2-yl)methoxy)(phenoxy)phosphoryl)-L-alaninate]: the EC50 was 6.05 µM in the assay with RSV strain A2 (setting [1]), over 5 µM with RSV A2 (setting [2]), 12.8 µM with HRV16 (setting [3]) and 13.8 µM in the assay on DENV2 replicon (setting [4]).

For the molecule `CC(C)OP1(=O)OC[C@@]2(C#N)O[C@@H](c3ccc4c(N)ncnn34)[C@H](O)[C@@H]2O1` (stereo partly drawn) [Example 163, (4aR,6S,7S,7aS)-6-(4-aminopyrrolo[2,1-f][1,2,4]triazin-7-yl)-7-hydroxy-2-isopropoxydihydro-4H-furo[3,2-d][1,3,2]dioxaphosphinine-4a(6H)-carbonitrile 2-oxide], the EC50 was 13.3 µM with RSV strain A2 (setting [5]), 9.21 µM in the assay on RSV A2 (setting [5]), over 50 µM in the assay on HRV16 (setting [6]) and over 50 µM in the assay on DENV2 replicon (setting [7]).
